Experiment: Nitrite content (ion chromatography; LC-FLD with DAN derivatisation; Griess test) in drug substance, intermediates, reagents, solvents, filters, excipients
Type: physicochemical
Set-up: Nitrite content T0 (enhanced method): unit: ppm
Conditions: for Nitrite NAP method (ppm) / Nitrite NAT enhanced sample prep. (ppm): ribociclib succinate drug substance batches at release; for Nitrite content T0 (enhanced method): drug substance manufactured at Menges
Excerpt: The method of testing for the presence and/or total amount of nitrites that is used in the methods of the invention may be any method which allows for the detection and/or quantitation of nitrites in a composition. For example, the method may be the Griess test. The Griess test allows for the detection and analysis of nitrite by the formation of a red-pink colour upon treatment of a nitrite-containing sample with the Griess reagent. The Griess reagent consists of two components in an acidic solution: an aniline derivative and a coupling agent. The most common arrangements use sulfanilamide and N-(1-naphthyl)ethylenediamine. For example 0.2% N-(1-naphthyl)ethylenediamine dihydrochloride and 2% sulfanilamide in 5% phosphoric acid may be used as a Griess reagent. Other aniline derivatives that may be used in a Griess reagent include sulfanilic acid, nitroaniline, and p-aminoacetophenone.
The Griess test involves two subsequent reactions, as shown in the scheme below. When the aniline derivative (e.g., sulfanilamide) is added, the nitrite ion reacts with it in the Griess diazotization reaction to form a diazonium salt, which then reacts with N-(1-naphthyl)ethylenediamine in an azo-coupling reaction, forming a pink-red azo-dye. Using a spectrophotometer, the nitrite concentration can then be quantitatively detected.
Additionally purified water; e.g. Milli Q • 2.
• 10 mM KH2PO4 Weigh accurately about 1.361 g of KH2PO4 into a 1 L volumetric flask, dissolve it in approximately 950 mL of additionally purified water and adjust the pH to 8.0 (with 2.7 M NaOH). Make up to the mark with additionally purified water. • 0.62 M HCl Add a few millilitres (e.g. 20 mL) of additionally purified water to a 200 mL volumetric flask, add 10.280 mL of concentrated HCl, mix and make up to the mark with additionally purified water. • 2.7 M NaOH Weigh accurately about 1.092 g of NaOH pellets into a 10 mL volumetric flask and dissolve it in additionally purified water. Cool to room temperature and make up to the mark with the same solvent. • Reagent DAN Weigh accurately about 5 mg of 2,3-diaminophthalene into a 100 mL volumetric flask and dissolve it with the solvent (methanol/water 1:1 (v/v)). Dilute up to the mark and ensure visual full dissolution. Use an amberglass flask. • Mobile phase A Mix 950 mL of 10 mM KH2PO4 solution (pH=8) and add 50 mL methanol. • Mobile phase B Methanol. • Solvent Methanol/water 1:1 (v/v), e.g. mix 2000 mL of additionally purified water and 2000 mL methanol.
• Instrument: HPLC with FLR detector; e.g. Waters Arc or equivalent • Column: C18 50×4.6 mm, 2.5 μm, e.g. XBridge C18 2.5 μm, 4.650 mm or equivalent
• Notes It is recommended to wear additional protective equipment (face mask and gloves) during weighing. • It is recommended to wash the column with 50% methanol after the analysis (example of preparation: mix 500 mL methanol and 500 m1 of additionally purified water). • It is recommended to rinse the injector with solvent after each injection. • All glassware and tools should be rinsed with additionally purified water before use. It is not recommended to leave the solutions open for a longer time before measurement. • Blank solution 1 Transfer 1 mL of solvent into a HPLC vial and perform derivatization as described below. • Blank solution 2 Transfer 10 mL of solvent into a single use glass vial and mix it on a magnetic stirrer for 30 min. Transfer the solution into a 5 mL centrifuge tube and centrifuge for 10 min at 12000 rpm. […] Fill up to the mark with solvent and mix. • (Cnitrite≈0.0005 mg/mL) • Comparison solution Transfer 10 mL of nitrite stock solution into a 500 mL volumetric flask. • (2 parallels) Fill up to the mark with solvent and mix. • Transfer 1 mL solution into a HPLC vial and perform the derivatization as described below. • (Cnitrite≈100 ppb) • Sample solution Accurately weigh about 1000 mg of the sample into a glass vial for single use and add 10 mL of solvent.

Nitrite NAP method (ppm) | Nitrite NAT enhanced sample prep. (ppm) | Nitrite NAT enhanced sample prep. (ppm) (manufacturer Raybow - DS04) | Compound | further results
0.2 | <0.1 | – | CN(C)C(=O)c1cc2cnc(Nc3ccc(N4CCNCC4)cn3)nc2n1C1CCCC1.O=C(O)CCC(=O)O [Batch B711866] | –
– | – | 0.3 | CN(C)C(=O)c1cc2cnc(Nc3ccc(N4CCNCC4)cn3)nc2n1C1CCCC1.O=C(O)CCC(=O)O [RIBOCICLIB SUCCINATE 833268R008] | –
– | – | <0.1 | CN(C)C(=O)c1cc2cnc(Nc3ccc(N4CCNCC4)cn3)nc2n1C1CCCC1.O=C(O)CCC(=O)O [RIBOCICLIB SUCCINATE 833268R012] | –
0.2 | 0.1 | – | CN(C)C(=O)c1cc2cnc(Nc3ccc(N4CCNCC4)cn3)nc2n1C1CCCC1.O=C(O)CCC(=O)O [Batch B696588] | –
0.1 | <0.1 | – | CN(C)C(=O)c1cc2cnc(Nc3ccc(N4CCNCC4)cn3)nc2n1C1CCCC1.O=C(O)CCC(=O)O [Batch B710669] | –
– | – | 1.1 | CN(C)C(=O)c1cc2cnc(Nc3ccc(N4CCNCC4)cn3)nc2n1C1CCCC1.O=C(O)CCC(=O)O [RIBOCICLIB SUCCINATE 833268A196] | Nitrite NAT enhanced sample prep. (ppm) (manufacturer Raybow - DS05): 0.1 ppm
– | – | <0.1 | CN(C)C(=O)c1cc2cnc(Nc3ccc(N4CCNCC4)cn3)nc2n1C1CCCC1.O=C(O)CCC(=O)O [RIBOCICLIB SUCCINATE 833268R013] | –
– | – | 0.1 | CN(C)C(=O)c1cc2cnc(Nc3ccc(N4CCNCC4)cn3)nc2n1C1CCCC1.O=C(O)CCC(=O)O [RIBOCICLIB SUCCINATE 833268A198] | Nitrite NAT enhanced sample prep. (ppm) (manufacturer Raybow - DS05): 0.1 ppm
0.1 | 0.1 | – | CN(C)C(=O)c1cc2cnc(Nc3ccc(N4CCNCC4)cn3)nc2n1C1CCCC1.O=C(O)CCC(=O)O [Batch B709941] | –
0.1 | <0.1 | – | CN(C)C(=O)c1cc2cnc(Nc3ccc(N4CCNCC4)cn3)nc2n1C1CCCC1.O=C(O)CCC(=O)O [Batch B711439] | –
0.5 | <0.1 | – | CN(C)C(=O)c1cc2cnc(Nc3ccc(N4CCNCC4)cn3)nc2n1C1CCCC1.O=C(O)CCC(=O)O [Batch B710666] | –
– | – | <0.1 | CN(C)C(=O)c1cc2cnc(Nc3ccc(N4CCNCC4)cn3)nc2n1C1CCCC1.O=C(O)CCC(=O)O [RIBOCICLIB SUCCINATE 833268R010] | –
– | – | 0.1 | CN(C)C(=O)c1cc2cnc(Nc3ccc(N4CCNCC4)cn3)nc2n1C1CCCC1.O=C(O)CCC(=O)O [RIBOCICLIB SUCCINATE 833268A202] | Nitrite NAT enhanced sample prep. (ppm) (manufacturer Raybow - DS05): 0.1 ppm
0.2 | <0.1 | – | CN(C)C(=O)c1cc2cnc(Nc3ccc(N4CCNCC4)cn3)nc2n1C1CCCC1.O=C(O)CCC(=O)O [Batch B709940] | –
0.2 | 0.1 | – | CN(C)C(=O)c1cc2cnc(Nc3ccc(N4CCNCC4)cn3)nc2n1C1CCCC1.O=C(O)CCC(=O)O [Batch B698297] | –
– | – | <0.1 | CN(C)C(=O)c1cc2cnc(Nc3ccc(N4CCNCC4)cn3)nc2n1C1CCCC1.O=C(O)CCC(=O)O [RIBOCICLIB SUCCINATE 833268R016] | –
– | – | <0.1 | CN(C)C(=O)c1cc2cnc(Nc3ccc(N4CCNCC4)cn3)nc2n1C1CCCC1.O=C(O)CCC(=O)O [RIBOCICLIB SUCCINATE 833268R011] | –
0.2 | 0.1 | – | CN(C)C(=O)c1cc2cnc(Nc3ccc(N4CCNCC4)cn3)nc2n1C1CCCC1.O=C(O)CCC(=O)O [Batch B695106] | Nitrite content T0 (enhanced method): 0.1

Nitrite NAP method (ppm) | Nitrite NAT enhanced sample prep. (ppm) | Nitrite NAT enhanced sample prep. (ppm) (manufacturer Raybow - DS04) | Compound | further results
– | <0.1 | – | CN(C)C(=O)c1cc2cnc(Nc3ccc(N4CCNCC4)cn3)nc2n1C1CCCC1.O=C(O)CCC(=O)O [Batch B711868] | –
– | – | – | CN(C)C(=O)c1cc2cnc(Nc3ccc(N4CCNCC4)cn3)nc2n1C1CCCC1 [Batch B685591] | Nitrite [ppm] LOD (1 ppm) (ribociclib base (LEE011 B10), ion chromatography): <LOD
– | – | <0.1 | CN(C)C(=O)c1cc2cnc(Nc3ccc(N4CCNCC4)cn3)nc2n1C1CCCC1.O=C(O)CCC(=O)O [RIBOCICLIB SUCCINATE 833268R015] | –
– | – | 0.1 | CN(C)C(=O)c1cc2cnc(Nc3ccc(N4CCNCC4)cn3)nc2n1C1CCCC1.O=C(O)CCC(=O)O [RIBOCICLIB SUCCINATE 833268A193] | Nitrite NAT enhanced sample prep. (ppm) (manufacturer Raybow - DS05): 0.1 ppm
– | – | <0.1 | CN(C)C(=O)c1cc2cnc(Nc3ccc(N4CCNCC4)cn3)nc2n1C1CCCC1.O=C(O)CCC(=O)O [RIBOCICLIB SUCCINATE 833268R009] | –
0.2 | <0.1 | – | CN(C)C(=O)c1cc2cnc(Nc3ccc(N4CCNCC4)cn3)nc2n1C1CCCC1.O=C(O)CCC(=O)O [Batch B696587] | Nitrite content T0 (enhanced method): <0.1
0.2 | 0.1 | – | CN(C)C(=O)c1cc2cnc(Nc3ccc(N4CCNCC4)cn3)nc2n1C1CCCC1.O=C(O)CCC(=O)O [Batch B709050] | –
0.3 | 0.4 | – | CN(C)C(=O)c1cc2cnc(Nc3ccc(N4CCNCC4)cn3)nc2n1C1CCCC1.O=C(O)CCC(=O)O [Batch B698293] | –
0.2 | 0.1 | – | CN(C)C(=O)c1cc2cnc(Nc3ccc(N4CCNCC4)cn3)nc2n1C1CCCC1.O=C(O)CCC(=O)O [Batch B692472] | Nitrite content T0 (enhanced method): 0.1
0.2 | 1.6 | – | CN(C)C(=O)c1cc2cnc(Nc3ccc(N4CCNCC4)cn3)nc2n1C1CCCC1.O=C(O)CCC(=O)O [Batch B710665] | –
0.3 | 0.5 | – | CN(C)C(=O)c1cc2cnc(Nc3ccc(N4CCNCC4)cn3)nc2n1C1CCCC1.O=C(O)CCC(=O)O [Batch B695104] | Nitrite content T0 (enhanced method): 0.5
0.1 | 0.1 | – | CN(C)C(=O)c1cc2cnc(Nc3ccc(N4CCNCC4)cn3)nc2n1C1CCCC1.O=C(O)CCC(=O)O [Batch B711867] | Nitrite content T0 (enhanced method): <0.1
– | – | <0.1 | CN(C)C(=O)c1cc2cnc(Nc3ccc(N4CCNCC4)cn3)nc2n1C1CCCC1.O=C(O)CCC(=O)O [RIBOCICLIB SUCCINATE 833268A144] | Nitrite NAT enhanced sample prep. (ppm) (manufacturer Raybow - DS05): <0.1 ppm
0.2 | <0.1 | – | CN(C)C(=O)c1cc2cnc(Nc3ccc(N4CCNCC4)cn3)nc2n1C1CCCC1.O=C(O)CCC(=O)O [Batch B709939] | –
0.2 | 0.2 | – | CN(C)C(=O)c1cc2cnc(Nc3ccc(N4CCNCC4)cn3)nc2n1C1CCCC1.O=C(O)CCC(=O)O [Batch B698294] | –
0.2 | <0.1 | – | CN(C)C(=O)c1cc2cnc(Nc3ccc(N4CCNCC4)cn3)nc2n1C1CCCC1.O=C(O)CCC(=O)O [Batch B708687] | –
– | – | – | CN(C)C(=O)c1cc2cnc(Nc3ccc(N4CCNCC4)cn3)nc2n1C1CCCC1.O=C(O)CCC(=O)O [DS (B699003AA)] | Nitrite content (component (DS or MgST) used in binary mixtures): DS 0.1 ppm

Source: US20250319032A1, “PHARMACEUTICAL COMPOSITIONS OF RIBOCICLIB” (Novartis AG, priority 2024, published 2025)
